{"source": "patent US9480702B2", "about": "“Use of chemically modified heparin derivates in sickle cell disease” (DILAFORETTE AB, priority 2011, dated 2016)", "key": {"[1]": {"target": "T1, factor IIa (Homo sapiens, UniProt P00734+P01008)", "conditions": "comparison value; cited from earlier work"}, "[2]": {"tested_on": "factor Xa", "conditions": "comparison value; cited from earlier work"}, "[3]": {"experiment": "APTT in citrate plasma of dosed rats", "assay_type": "in vivo, Sprague-Dawley rats", "conditions": "i.v. dosing, heparin = 1", "description": "(§1) Test procedures were as follows:\nCitrate stabilized plasma was prepared from the blood.\n(§2) Saline: (Negative Control) • 3."}, "[4]": {"conditions": "daily prophylactic dose, four patients; cited from earlier work"}, "[5]": {"experiment": "Bleeding time after tail incision in rats", "assay_type": "in vivo, Sprague-Dawley rats", "conditions": "for Estimated equipotent doses with respect to effects on bleeding time, normalized vs. heparin: rats, i.v. dosing, heparin = 1", "description": "as §1\nThe incision was 9 mm long and 1 mm deep and was standardized using a template device. Blood was blotted from the incision until bleeding stopped. The time during which visible bleeding could be observed was measured, for up to 25 minutes. The longer the bleeding time, the more pronounced the anti-coagulant effects of the administered agent.\nas §2"}, "[6]": {"target": "T2, human P-selectin (Homo sapiens, UniProt P16109)", "T2 construct": "Fc (IgG Fc fusion partner)", "T2 sequence (P16109 with tags, fused parts or gaps limits assumed)": "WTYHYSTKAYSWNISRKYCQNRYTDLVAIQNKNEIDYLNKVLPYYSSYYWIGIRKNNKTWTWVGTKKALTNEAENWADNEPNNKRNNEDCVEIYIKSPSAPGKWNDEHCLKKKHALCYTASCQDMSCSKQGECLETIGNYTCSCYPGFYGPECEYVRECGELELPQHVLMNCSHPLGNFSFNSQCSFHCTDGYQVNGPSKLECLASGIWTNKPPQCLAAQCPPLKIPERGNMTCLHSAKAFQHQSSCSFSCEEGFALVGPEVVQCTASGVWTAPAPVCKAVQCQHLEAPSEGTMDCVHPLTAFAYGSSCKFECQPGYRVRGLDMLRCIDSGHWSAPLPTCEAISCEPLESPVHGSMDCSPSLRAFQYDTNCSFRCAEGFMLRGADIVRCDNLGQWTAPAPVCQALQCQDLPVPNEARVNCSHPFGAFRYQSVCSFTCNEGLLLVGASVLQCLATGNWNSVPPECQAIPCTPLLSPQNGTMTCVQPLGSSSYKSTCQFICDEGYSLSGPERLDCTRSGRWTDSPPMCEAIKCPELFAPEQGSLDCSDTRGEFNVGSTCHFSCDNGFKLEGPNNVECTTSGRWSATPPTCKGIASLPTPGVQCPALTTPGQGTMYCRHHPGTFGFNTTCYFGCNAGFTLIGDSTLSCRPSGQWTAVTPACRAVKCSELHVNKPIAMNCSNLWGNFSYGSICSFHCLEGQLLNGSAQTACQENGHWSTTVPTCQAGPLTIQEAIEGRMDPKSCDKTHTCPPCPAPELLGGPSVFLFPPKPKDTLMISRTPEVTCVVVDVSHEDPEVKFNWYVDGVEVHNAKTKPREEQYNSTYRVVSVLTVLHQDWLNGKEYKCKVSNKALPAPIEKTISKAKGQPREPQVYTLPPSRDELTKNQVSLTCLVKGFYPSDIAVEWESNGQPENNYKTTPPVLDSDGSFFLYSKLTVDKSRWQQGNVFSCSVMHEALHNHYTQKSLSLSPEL", "experiment": "Binding to P-selectin analyzed by optical biosensor (surface plasmon resonance, Biacore 2000)", "conditions": "read-out: apparent KD", "description": "The heparin derivatives were desalted and transferred into running buffer using desalting columns. The molar concentrations of the eluates were determined by analysis of UA content (mg/ml) using the phenylphenol method (Blumenkrantz et al. 1973 Anal Biochem 54, 484-9). […] The data was analyzed using BIAevaluation software, version 3. To prepare the biosensor assay, the capturing affinity purified goat anti-human IgG Fc antibody was immobilized onto a carboxymethyl dextran chip. The antibody was injected at a concentration of 50 μg/ml in 50 mM sodium acetate buffer, pH 5.0 for 12 min at […] resulting in a final response of approximately 16,200 response units (RU) in flow cell 1 and 13,400 RU in flow cell 2. Remaining activated groups were blocked with an injection of ethanolamine-HCl. The P-selectin/Fc chimera was captured onto the antibody surface in flow cell 2 (Bachelet L. et al. 2009, Biochim et Biophys Acta 1790, 1416), by injecting the molecule at a concentration of 35 ug/mL, using running buffer (10 mM Hepes, 150 mM NaCl, 1 mM CaCl2, 0.005% Tween-20, pH 7.4, filtered 0.02 μm) in the mobile phase. […] The binding of different heparin derivatives to P-selectin was analyzed using running buffer at 20 μl/min. After the association and dissociation phase of each sample, regeneration of the surface was performed using running buffer containing 0.8 M NaCl. Data from the reference surface was subtracted from the data from the P-selectin surface. Stability of the P-selectin surface was verified by measuring the response from injections of 0.1 mg/mL heparin in the beginning and the end of each experiment.\nThe response data at steady-state was plotted against the concentration (data not shown). The data was analyzed using non-linear regression, assuming 1:1 binding. […] The peak value (Mp) was used instead of the (higher) Mw value when calculating the molar concentrations of UFH."}, "[7]": {"tested_on": "SS RBC adhesion to endothelial cells treated with IL-13 and histamine", "experiment": "In vitro sickle red blood cell adhesion to HUVECs in flow chamber", "assay_type": "cell-based, human", "conditions": "for Inhibition of SS RBC adhesion to endothelial cells (overall): HUVECs stimulated with IL-13 and histamine", "description": "Primary HUVECs (passage 4 only) were cultured to confluency on gelatin-coated slides in […] basal medium 2 (EBM2; Clonetics, Walkersville, Md.) supplemented with endothelial growth medium 2 (EGM2; Clonetics, Walkersville, Md.). For each assay, a gelatin coated slide with HUVECs grown to confluence was mounted inside a graduated height flow chamber. Both untreated and IL-13/histamine-stimulated slides were initially studied with each SS RBC sample. Subsequent experiments then compared adhesion with and without potential inhibitors of adhesion.\nHuman blood samples from patients homozygous for hemoglobin S were collected into citrate tubes.\nIn vitro studies of cell adhesion exposed to flowing conditions represent in vivo events, as compared to adhesion assays in which cells are simply allowed to incubate overlaid on a chemical or cellular substrate (e.g. laminin or endothelial cells) and then washed off by either non-controlled forces (e.g. pipette washes) or controlled forces (e.g. rotary motion devices). Flow chambers can produce either a constant shear stress throughout the chamber or a variable shear stress, produced by creating a variable height for the chamber.\nSurface expression of P-selectin on IL-13 and histamine stimulated and unstimulated endothelial cells (HUVECs) were tested by flow cytometry. Measurement of the ability of SS RBC to adhere to these endothelial cells was performed in flow chambers. Negative control experiments included untreated endothelial cells, so that SS RBC adhesion to treated and untreated cells could be compared.\nMultiple dose-finding experiments were conducted."}, "[8]": {"conditions": "cited from earlier work"}, "[9]": {"tested_on": "factor Xa", "conditions": "measured values on the produced DF02"}, "[10]": {"target": "T1, factor IIa", "conditions": "measured values on the produced DF02"}, "[11]": {"tested_on": "SS RBC adhesion to the endothelium", "description": "These experiments utilize a previously described animal model (Zennadi et al. Blood 2007), in which window chambers are first implanted into the flanks of nude mice. Three to five days later, human normal or sickle red cells are infused into the mouse (usually through the tail vein) pre-treated with TNF-α (to induce inflammation and upregulate P-selectin expression); mice treated with vehicle only may be studied as controls. Female mice (nu−/nu−) 8-12 weeks in age from Jackson Laboratories, Bar Harbor, Me., were used to perform experiments described.\nRBCs to be infused are pre-labelled with a fluorescent dye. The cells' adhesion may then be observed in subdermal blood vessels visible through the previously implanted window chambers. […] In addition, in some of these experiments, blood samples were drawn during the observation period in order to quantitate specific variables, such as cell survival. This model has the great advantages of providing direct visualization of cells in the context of whole blood and of allowing circulation of transfused cells under normal circulatory pressures."}, "[12]": {"conditions": "steady-state response, non-linear regression assuming 1:1 binding, P-selectin/Fc chimera captured on chip"}, "[13]": {"conditions": "injected before and after induction of vaso-occlusion"}}, "note": "Entries after “also recorded” stand apart in the source; their conditions may differ. Where two headings read alike, the source gives them in different places.", "data": [{"substance": "Heparin Sodium", "values": [{"measurement": "Corresponding value of specific anticoagulant activity (anti-factor IIa)", "setting": "[1]", "result": "at least 180 IU/mg"}, {"measurement": "Corresponding value of specific anticoagulant activity (anti-factor Xa)", "setting": "[2]", "result": "at least 180 IU/mg"}, {"measurement": "Estimated equipotent doses with respect to effects on APTT, normalized vs. heparin", "setting": "[3]", "result": 1}, {"measurement": "Pain and days at hospital", "setting": "[4]", "result": "pain reduction and fewer days at hospital"}, {"measurement": "Anti-coagulant effect (bleeding time and coagulation parameters)", "setting": "[5]; adult rats, i.v.", "result": "profound dose-related effects on all parameters investigated"}, {"measurement": "Estimated equipotent doses with respect to effects on bleeding time, normalized vs. heparin", "setting": "[5]", "result": 1}, {"measurement": "Kd", "setting": "[6]; [12]", "result": 200, "unit": "nM"}]}, {"substance": "Tinzaparin natrium", "values": [{"measurement": "Inhibition of SS RBC adhesion to endothelial cells (overall)", "setting": "[7]", "result": "quite effective in reducing SS RBC adhesion"}, {"measurement": "Kd", "setting": "[6]; [12]", "result": 4000, "unit": "nM"}, {"measurement": "Bleeding events", "setting": "[8]; clinical study", "result": "several cases of bleeding events"}, {"measurement": "Duration of hospitalization", "setting": "[8]; sickle VOC", "result": "significantly shortened"}, {"measurement": "Duration of the most-severe pain scores", "setting": "[8]; sickle VOC", "result": "significantly shortened"}]}, {"substance": "sevuparin sodium [DF02]", "values": [{"measurement": "antiXa activity", "setting": "[9]", "result": "less than 10 IU/mg"}, {"measurement": "Estimated equipotent doses with respect to effects on APTT, normalized vs. heparin", "setting": "[3]", "result": "30-40"}, {"measurement": "antiIIa activity", "setting": "[10]", "result": "less than 10 IU/mg"}, {"measurement": "Anti-coagulant effect (bleeding time and coagulation parameters)", "setting": "[5]; adult rats, i.v.", "result": "reduced anti-coagulant effect"}, {"measurement": "Anti-coagulant effect (bleeding time and coagulation parameters)", "setting": "[5]; juvenile rats of age 14±1 days", "result": "reduced anti-coagulant effect"}, {"measurement": "Estimated equipotent doses with respect to effects on bleeding time, normalized vs. heparin", "setting": "[5]", "result": "30-50"}, {"measurement": "Effect on SS RBC adhesion", "setting": "[7]; 100 μg/ml", "result": "appeared to inhibit adhesion as much as did higher concentrations; also recorded: easily detectable"}, {"measurement": "Inhibition of SS RBC adhesion compared to tinzaparin", "setting": "[7]; 400 μg/ml, most samples", "result": "equivalent to the same concentration of tinzaparin"}, {"measurement": "Effect on SS RBC adhesion", "setting": "[7]; 10 and 50 μg/ml", "result": "little effect"}, {"measurement": "Inhibition of SS RBC adhesion to endothelial cells (overall)", "setting": "[7]", "result": "able to inhibit SS RBC adhesion"}, {"measurement": "Vessel occupancy, decrease", "setting": "[11]; as compared to a saline injection", "result": 50, "unit": "%"}, {"measurement": "Effect on adhered SS-RBC", "setting": "[11]; [13]", "result": "inhibition and reversal of adhered SS-RBC"}, {"measurement": "Effect on blood flow", "setting": "[11]; [13]", "result": "partial normalization of the blood flow"}, {"measurement": "Number of vessels that reached a normalized blood flow", "setting": "[11]; mouse, in vivo", "result": "dose dependent effect"}, {"measurement": "Kd", "setting": "[6]", "result": 700, "unit": "nM"}, {"measurement": "Effect on PT", "setting": "adult rats", "result": "too weak to allow for comparative estimates"}, {"measurement": "Effect on PT", "setting": "juvenile rats", "result": "weak"}]}]}
